Test results as given in PubChem BioAssay AID330 (DTP/NCI, 2004).
Where “and” joins values, the source holds several entries; their conditions need not be identical. Identical values can stand only once. Toxic doses and inconclusive results are not listed.

System: P388 leukemia ip, CD2F1 mice, survival T/C
Test: NCI In Vivo Anticancer Drug Screen. Data for tumor model P388 Leukemia (intraperitoneal) in CD2F1 (CDF1) mice
Conditions: endpoint: median survival time, higher = longer survival
Summary of the method: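 Mice carrying the transplanted tumor received test compound or vehicle. Survival was recorded in each group, and the value is the treated-group measurement divided by that of the vehicle-treated control group.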

[1] = dose: 50.0 mg/kg/injection, schedule: Q01DX005 (ip), vehicle: saline with Tween-80
[2] = dose: 100.0 mg/kg/injection, schedule: Q01DX005 (ip), vehicle: saline with Tween-80
[3] = dose: 200.0 mg/kg/injection, schedule: Q01DX005 (ip), vehicle: saline with Tween-80
[4] = dose: 12.5 mg/kg/injection, schedule: Q01DX009 (ip), vehicle: Klucel (hydroxypropylcellulose) (HPC)
[5] = dose: 25.0 mg/kg/injection, schedule: Q01DX009 (ip), vehicle: Klucel (hydroxypropylcellulose) (HPC)
[6] = dose: 50.0 mg/kg/injection, schedule: Q01DX009 (ip), vehicle: Klucel (hydroxypropylcellulose) (HPC)
[7] = dose: 100.0 mg/kg/injection, schedule: Q01DX009 (ip), vehicle: Klucel (hydroxypropylcellulose) (HPC)
[8] = dose: 200.0 mg/kg/injection, schedule: Q01DX009 (ip), vehicle: Klucel (hydroxypropylcellulose) (HPC)
[9] = dose: 100.0 mg/kg/injection, schedule: Q01DX001 (ip), vehicle: saline with Tween-80
[10] = dose: 200.0 mg/kg/injection, schedule: Q01DX001 (ip), vehicle: saline with Tween-80
[11] = dose: 12.5 mg/kg/injection, schedule: Q01DX009 (ip), vehicle: saline
[12] = dose: 50.0 mg/kg/injection, schedule: Q01DX009 (ip), vehicle: saline with Tween-80
[13] = dose: 100.0 mg/kg/injection, schedule: Q04DX002 (ip), vehicle: saline with Tween-80
[14] = dose: 200.0 mg/kg/injection, schedule: Q04DX002 (ip), vehicle: saline with Tween-80
[15] = dose: 400.0 mg/kg/injection, schedule: Q04DX002 (ip), vehicle: saline with Tween-80
[16] = dose: 50.0 mg/kg/injection, schedule: Q01DX009 (ip), vehicle: saline
[17] = dose: 100.0 mg/kg/injection, schedule: Q01DX009 (ip), vehicle: saline

CNCC(C(=O)c1ccccc1)C(=O)c1ccccc1
T/C [1]: 95 % of control | T/C [2]: 101 % of control | T/C [3]: 110 % of control

COC(=O)/C(=N\NS(=O)(=O)c1ccc(C)cc1)c1ccccc1
T/C [4]: 99 % of control | T/C [5]: 105 % of control | T/C [6]: 99 % of control | T/C [7]: 98 % of control | T/C [8]: 90 % of control

COc1nc(COC(=O)NC(C)C)c(COC(=O)NC(C)C)n1C
T/C (dose: 12.5 mg/kg/injection, schedule: Q01DX005 (ip), vehicle: Klucel (hydroxypropylcellulose) (HPC)): 109 % of control | T/C (dose: 25.0 mg/kg/injection, schedule: Q01DX005 (ip), vehicle: Klucel (hydroxypropylcellulose) (HPC)): 118 % of control | T/C (dose: 50.0 mg/kg/injection, schedule: Q01DX005 (ip), vehicle: Klucel (hydroxypropylcellulose) (HPC)): 123 % of control | T/C (dose: 100.0 mg/kg/injection, schedule: Q01DX005 (ip), vehicle: Klucel (hydroxypropylcellulose) (HPC)): 166 % of control | T/C (dose: 200.0 mg/kg/injection, schedule: Q01DX005 (ip), vehicle: Klucel (hydroxypropylcellulose) (HPC)): 189 % of control | T/C (dose: 400.0 mg/kg/injection, schedule: Q01DX005 (ip), vehicle: Klucel (hydroxypropylcellulose) (HPC)): 196 % of control

CC(=O)C(CCCn1c(=O)c2c(ncn2C)n(C)c1=O)CCCn1c(=O)c2c(ncn2C)n(C)c1=O
T/C (dose: 60.0 mg/kg/injection, schedule: Q01DX005 (ip), vehicle: Klucel (hydroxypropylcellulose) (HPC)): 102 % of control | T/C (dose: 120.0 mg/kg/injection, schedule: Q01DX005 (ip), vehicle: Klucel (hydroxypropylcellulose) (HPC)): 99 % of control | T/C (dose: 240.0 mg/kg/injection, schedule: Q01DX005 (ip), vehicle: Klucel (hydroxypropylcellulose) (HPC)): 104 % of control

CCCCCCCCCCC1(O)OC(=O)C(C)=C1C (stereo not given)
T/C (dose: 12.5 mg/kg/injection, schedule: Q04DX003 (ip), vehicle: saline with Tween-80): 100 % of control | T/C (dose: 25.0 mg/kg/injection, schedule: Q04DX003 (ip), vehicle: saline with Tween-80): 101 % of control | T/C (dose: 50.0 mg/kg/injection, schedule: Q04DX003 (ip), vehicle: saline with Tween-80): 100 % of control

Cn1c(=O)c2c(ncn2CCNC(c2ccccc2)c2cccc(Cl)c2)n(C)c1=O (stereo not given)
T/C (dose: 6.25 mg/kg/injection, schedule: Q01DX005 (ip), vehicle: alkali diluted with saline): 101 % of control | T/C (dose: 12.5 mg/kg/injection, schedule: Q01DX005 (ip), vehicle: alkali diluted with saline): 94 % of control | T/C (dose: 25.0 mg/kg/injection, schedule: Q01DX005 (ip), vehicle: alkali diluted with saline): 97 % of control

CCC(c1ccc(OC)cc1)C(NCC(=O)N/N=C/c1ccc(N(C)C)cc1)c1ccc(OC)cc1 (stereo not given)
T/C [9]: 100 % of control | T/C [10]: 100 % of control | T/C (dose: 400.0 mg/kg/injection, schedule: Q01DX001 (ip), vehicle: saline with Tween-80): 99 % of control

CC(C)c1ccc(C(CC(=O)c2ccccc2)C(C(=O)O)c2ccc([N+](=O)[O-])cc2)cc1 (stereo not given)
T/C [6]: 105 % of control | T/C [7]: 103 % of control | T/C [8]: 104 % of control

COc1cc2c(OC)c(c1)CCc1cc(OC)c(cc1OC)CC2
T/C [1]: 97 % of control | T/C [2]: 97 % of control | T/C [3]: 94 % of control

C[Si](C)(C)CSCC#N
T/C [9]: 98 % of control | T/C [10]: 107 % of control

C[N+]1(CSC(=O)c2ccccc2)CCCCC1
T/C (dose: 3.12 mg/kg/injection, schedule: Q01DX009 (ip), vehicle: saline): 110 % of control | T/C (dose: 6.25 mg/kg/injection, schedule: Q01DX009 (ip), vehicle: saline): 114 % of control | T/C (dose: 12.5 mg/kg/injection, schedule: Q01DX009 (ip), vehicle: saline with Tween-80): 115 % of control and 91 % of control | T/C [11]: 107 % of control and 110 % of control | T/C [12]: 100 % of control and 116 % of control

CCN1C(N)=NS(=O)(=O)c2ccccc21
T/C [13]: 104 % of control | T/C [14]: 104 % of control | T/C [15]: 106 % of control

Cc1ccccc1NC(=O)Cc1ccccc1
T/C (dose: 6.25 mg/kg/injection, schedule: Q01DX009 (ip), vehicle: Klucel (hydroxypropylcellulose) (HPC)): 99 % of control | T/C [4]: 104 % of control | T/C [5]: 94 % of control | T/C [6]: 108 % of control | T/C [7]: 95 % of control

C1CCCC2(CCC1)OCCO2
T/C (dose: 100.0 mg/kg/injection, schedule: Q04DX003 (ip), vehicle: Klucel (hydroxypropylcellulose) (HPC)): 106 % of control | T/C (dose: 200.0 mg/kg/injection, schedule: Q04DX003 (ip), vehicle: Klucel (hydroxypropylcellulose) (HPC)): 102 % of control | T/C (dose: 400.0 mg/kg/injection, schedule: Q04DX003 (ip), vehicle: Klucel (hydroxypropylcellulose) (HPC)): 95 % of control

Brc1ccc(-c2cnc3nc4[nH]c5ccccc5c4nn23)cc1
T/C (dose: 12.5 mg/kg/injection, schedule: Q01DX005 (ip), vehicle: saline with Tween-80): 101 % of control | T/C (dose: 25.0 mg/kg/injection, schedule: Q01DX005 (ip), vehicle: saline with Tween-80): 93 % of control | T/C [1]: 89 % of control and 91 % of control

Fc1cccc(-c2nn[nH]n2)c1
T/C [13]: 102 % of control | T/C [14]: 107 % of control | T/C [15]: 116 % of control

Cc1cccc(N2C(c3ccccc3)c3ccc(C)cc3NS2=O)c1 (stereo not given)
T/C (dose: 60.0 mg/kg/injection, schedule: Q01DX005 (ip), vehicle: saline with Tween-80): 97 % of control | T/C (dose: 120.0 mg/kg/injection, schedule: Q01DX005 (ip), vehicle: saline with Tween-80): 90 % of control | T/C (dose: 240.0 mg/kg/injection, schedule: Q01DX005 (ip), vehicle: saline with Tween-80): 95 % of control

O=C1c2ccccc2-c2cc(O)c3c4c(O)cc5c6c(ccc(c7ccc1c2c73)c64)C(=O)c1ccccc1-5
T/C [1]: 95 % of control | T/C [2]: 91 % of control | T/C [3]: 89 % of control

CCCC(O)CN (stereo not given)
T/C (dose: 100.0 mg/kg/injection, schedule: Q04DX003 (ip), vehicle: saline): 103 % of control | T/C (dose: 200.0 mg/kg/injection, schedule: Q04DX003 (ip), vehicle: saline): 107 % of control

CCP(C)(=O)c1ccccc1 (stereo not given)
T/C [13]: 96 % of control | T/C [14]: 97 % of control | T/C [15]: 100 % of control

COc1ccc(C(=O)CC[N+](C)(C)C)cc1
T/C [11]: 106 % of control | T/C (dose: 25.0 mg/kg/injection, schedule: Q01DX009 (ip), vehicle: saline): 101 % of control

N#CCCC1(CCC#N)CCCC(CCC#N)(CCC#N)C1=O
T/C [12]: 95 % of control | T/C (dose: 100.0 mg/kg/injection, schedule: Q01DX009 (ip), vehicle: saline with Tween-80): 99 % of control | T/C (dose: 200.0 mg/kg/injection, schedule: Q01DX009 (ip), vehicle: saline with Tween-80): 87 % of control | T/C (dose: 400.0 mg/kg/injection, schedule: Q01DX009 (ip), vehicle: saline with Tween-80): 92 % of control

CC(=O)OC(C)C1C2=C(C(=O)CC1(C)O)C(=O)c1c(ccc(-c3ccc4c(c3O)C(=O)C3=C(C4=O)C(C(C)OC(C)=O)C(C)(O)CC3=O)c1O)C2=O (stereo not given)
T/C (dose: 3.13 mg/kg/injection, schedule: Q01DX009 (ip), vehicle: saline with Tween-80): 122 % of control | T/C (dose: 6.25 mg/kg/injection, schedule: Q01DX009 (ip), vehicle: saline with Tween-80): 119 % of control

O=C1C=C/C(=C\c2ccc(Cl)cc2)O1
T/C (dose: 100.0 mg/kg/injection, schedule: Q04DX002 (ip), vehicle: Klucel (hydroxypropylcellulose) (HPC)): 99 % of control | T/C (dose: 200.0 mg/kg/injection, schedule: Q04DX002 (ip), vehicle: Klucel (hydroxypropylcellulose) (HPC)): 107 % of control | T/C (dose: 400.0 mg/kg/injection, schedule: Q04DX002 (ip), vehicle: Klucel (hydroxypropylcellulose) (HPC)): 96 % of control

CC(N)CN1CC(C)N=C1c1ccncc1 (stereo not given)
T/C [16]: 102 % of control | T/C [17]: 98 % of control | T/C (dose: 200.0 mg/kg/injection, schedule: Q01DX009 (ip), vehicle: saline): 99 % of control

OC1COC2C(O)COC12 (stereo not given)
T/C [16]: 102 % of control | T/C [17]: 90 % of control

CC12CC3(C)CC(C)(C1)CC(C(Cl)C(=O)O)(C2)C3 (stereo not given)
T/C (dose: 25.0 mg/kg/injection, schedule: Q01DX009 (ip), vehicle: suspension in saline): 98 % of control | T/C (dose: 50.0 mg/kg/injection, schedule: Q01DX009 (ip), vehicle: suspension in saline): 100 % of control
